The text below walks through data of patent publication US6608082B1, “Treatment of erectile dysfunction using isoquinoline compound melanocortin receptor ligands” (Lion Bioscience AG, priority 1998, dated 2003).

Read-outs that look alike come from different tables or passages of the source.

One assay addresses T1, MCR-1 (Homo sapiens, UniProt Q01726).
T1 construct: expressed in transfected cells; host or cells: HEK 293
Put plainly: Melanocortin receptor binding assay, competition with 125I-HP 467, HEK 293 cells expressing hMCR-1. Conditions: for IC50: read-out: MC-1 IC50. A digest of the protocol: (§1)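 Test compounds compete on intact HEK 293 cells carrying hMCR-1 (2×10^4 per tube) or hMCR-4 (4×10^3 per tube), suspended in PBS, 10% calf serum, 1 mM CaCl2.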

The test system of the next assay is TNF-α. Put plainly: Reduction of lipopolysaccharide-induced tumor necrosis factor levels in mice. Type of assay: in vivo, BALB/c female mice. Conditions: IP, plasma 90 or 105 minutes after LPS, mean ± SEM. As to the method:
BALB/c female mice weighing approximately 20 g were placed into a control group and a treated group. Five mg/kg of LPS in 0.9% saline was administered (100 μl to give 100 μg LPS per mouse) by intraperitoneal (IP) injection to all mice. Mice in the treatment group received either 30, 100, 300 or 600 μg of various isoquinoline compounds per mouse in a volume of 100 μl of PBS. Control mice received 100 μl of saline alone. One minute after initial injections all mice received the LPS injection. As a positive control, 100 μg of HP 228 was injected per mouse.
Blood samples were collected from the orbital sinus of treated and control mice 90 minutes or 105 minutes after LPS administration. The plasma was separated by centrifugation at 3000×g for 5 min and stored at −20° C. Samples were thawed and diluted, if TNF-α concentration was greater than 3200 pg/ml, with PBS containing 1% bovine serum albumin, 10% donor horse serum, 1% normal mouse serum, 0.05% TWEEN-20 and 0.05% thimerosal. A 100 μl sample of plasma was assayed by ELISA for TNF-α. Briefly, ELISA plates were coated with hamster anti-mouse TNF-α antibody (Genzyme; Cambridge Mass.). Samples or known concentrations of TNF-α were added to the coated plates and incubated for 2 hr at 37° C. Plates were washed and subsequently incubated with biotinylated rabbit anti-mouse TNG-α for 1 hr at 37° C. Plates were washed and incubated with streptavidin-HRP for 1 hr at 37° C., and HRP activity was detected with hydrogen peroxide and o-phenylenediamine (OPD) using standard immunoassay procedures.
The mean (±SEM) TNF-α level in five mice from each group was determined and the percent reduction in TNF-α levels was calculated.

The subject of the next assay is IL-10. Put plainly: Increasing levels of IL-10 in mice (plasma ELISA). In kind it is in vivo. The following applies: IP, mouse plasma, 90 or 105 minutes. As for the experimental part:
Isoquinoline compounds were administered intraperitoneally to mice in doses of 30, 100 or 300 μg/mouse or orally in doses of 300 or 600 μg/mouse. Levels of IL-10 were measured 90 or 105 minutes after administration as indicated. Samples were collected and diluted, when appropriate, as described in Example VI. A 100 μl sample of plasma was assayed by ELISA for IL-10. Briefly, ELISA plates were coated with rat anti-mouse IL-10 monoclonal antibody (Pharmingen; San Diego Calif.). Samples or known concentrations of IL-10 were added to the coated plates and incubated for 2 hr at 37° C. Plates were washed and incubated with biotinylated rat anti-mouse IL-10 (R&D Systems; Minneapolis Minn.) for 1 hr at 37° C. Plates were washed and incubated with streptavidin-HRP 30 min at 37° C., and HRP activity was detected with hydrogen peroxide and TMB using standard immunoassay procedures.

Assay [1] relates to arachidonic acid induced dermal inflammation. Put plainly: Arachidonic acid induced dermal inflammation (ear thickness). In kind it is in vivo, Female BALB/c mice. The following applies: administered orally; TRG 2405-241 600 μg/mouse, indomethacin 1 mg/mouse; FIG. 2. As for the experimental part:
Female BALB/c mice (17-22 g) were used and administered the test isoquinoline compounds or positive control compounds 30 to 60 min prior to topical application of arachidonic acid. Indomethacin and HP 228 were used as positive controls. Compounds were administered orally (p.o.) or intraperitoneally (i.p.). Initial ear thickness (left and right) was measured using spring loaded micro-calipers. Arachidonic acid was applied to mice anesthetized with a cocktail of ketamine/xylazine (7.0 mg/ml and 0.6 mg/ml, respectively) administered i.p. (300 μl/mouse). Utilizing a micro-pipette, 20 μl of arachidonic acid solution (100 mg/ml ethanol or acetone) was applied to the right ear (10 μl to inner and 10 μl to outer surfaces of […] for a total of 2 mg arachidonic acid per right ear), and 20 μl of vehicle (ethanol or acetone) was applied to the left ear. Mice were returned to their cages to recover. Mice were again anesthetized 50 min after arachidonic acid application and their ears measured.
Dermal inflammation was determined by subtracting the difference of the vehicle treated left ear (L60−L0) from the difference of the arachidonic acid treated right ear (R60−R0). Ear thickness measurements were averaged for each group, and the responses in the vehicle treated control group (Cr; saline or PBS) were subtracted from the response noted in the isoquinoline compound treated group (Tr) to give the relative inflammatory response for each treatment group compared to the control group. The percent inhibition is defined by the equation: % inhibition=(Cr−Tr)/(Cr)×100.

A further assay has as its target T2, MCR-4 (Homo sapiens, UniProt P32245).
T2 construct: expressed in transfected cells; host or cells: HEK 293
As to the kind of experiment: Melanocortin receptor binding assay, competition with 125I-HP 467, HEK 293 cells expressing hMCR-4. The following applies: for IC50: read-out: MC-4 IC50. A digest of the protocol:
as §1

Setting [2] is: TRG 2406 and TRG 2407 libraries, inhibition of binding of 125I-HP 467.
Where [3] appears, read: inhibition of binding of 125I-HP 467, HEK 293 cells expressing MCR-1, TRG 2414 library.
[4] abbreviates: inhibition of binding of 125I-HP 467, HEK 293 cells expressing MCR-4, TRG 2414 library.
Setting [5] is: inhibition of binding of 125I-HP 467, HEK 293 cells expressing MCR-1.
[6] abbreviates: inhibition of binding of 125I-HP 467, HEK 293 cells expressing MCR-4.
The mark [7] stands for this setting: TRG 2414 library, inhibition of binding of 125I-HP 467, HEK 293 cells expressing MCR-1.
Setting [8] is: TRG 2414 library, inhibition of binding of 125I-HP 467, HEK 293 cells expressing MCR-4.
[9] abbreviates: TRG 2408 and TRG 2409 libraries, inhibition of 125I-HP 467 binding.
Setting [10] is: competition with 125I-HP 467, HEK 293 cells expressing MCR-1.
The mark [11] stands for this setting: competition with 125I-HP 467, HEK 293 cells expressing MCR-4.

T2 sequence (P32245 whole entry): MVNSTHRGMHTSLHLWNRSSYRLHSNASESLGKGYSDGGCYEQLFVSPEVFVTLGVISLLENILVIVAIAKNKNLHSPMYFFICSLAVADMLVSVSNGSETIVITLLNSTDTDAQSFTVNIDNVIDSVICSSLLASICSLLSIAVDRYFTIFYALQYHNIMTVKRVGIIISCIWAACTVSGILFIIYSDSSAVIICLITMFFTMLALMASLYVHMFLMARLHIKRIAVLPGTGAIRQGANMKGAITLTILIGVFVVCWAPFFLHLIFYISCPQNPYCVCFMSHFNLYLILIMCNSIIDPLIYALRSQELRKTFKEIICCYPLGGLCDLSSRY
T1 sequence (Q01726 whole entry): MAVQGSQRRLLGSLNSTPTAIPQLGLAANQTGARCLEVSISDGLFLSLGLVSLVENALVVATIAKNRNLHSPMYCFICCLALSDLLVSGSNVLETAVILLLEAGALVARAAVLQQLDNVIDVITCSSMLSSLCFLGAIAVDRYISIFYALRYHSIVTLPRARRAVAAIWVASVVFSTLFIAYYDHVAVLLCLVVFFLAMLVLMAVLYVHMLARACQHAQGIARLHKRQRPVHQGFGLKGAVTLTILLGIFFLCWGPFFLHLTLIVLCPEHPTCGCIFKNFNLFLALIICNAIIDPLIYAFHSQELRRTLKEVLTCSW

In the case of `CNC(CN)CCCCN1Cc2ccccc2C(CNC2CCCCC2)C1c1ccc(OC)c(S(=O)(=O)O)c1` (stereo not shown) [TRG 2405-268], the “% Disp. of 125I-HP 467 (first of duplicate)” value at MCR-1 (10 μM isoquinoline compound, HEK 293 cells expressing MCR-1, duplicate 1) stood at 0%. Moreover, the “% Disp. of 125I-HP 467 (second of duplicate)” value on MCR-1 (10 μM isoquinoline compound, HEK 293 cells expressing MCR-1, duplicate 2) is given as 3.6%. For the same compound, the “% TNF-α Inhibtion, IP 30” value in the assay on TNF-α (30 μg per mouse) was −58 ± 18%. Besides, the “% TNF-α Inhibtion, IP 300” value in the assay with TNF-α (300 μg per mouse) is 9 ± 23%. For the same compound, the “% IL-10 Induction, IP 30” value with IL-10 (30 μg per mouse) is given as −3 ± 16%. In the assay on IL-10 (300 μg per mouse), the “% IL-10 Induction, IP 300” value came out at 6 ± 17%.

`COc1ccc2c(c1)c(CC(=O)O)c(C)n2C(=O)c1ccc(Cl)cc1` [indomethacin, reference compound]: in assay [1], the “inhibition of arachidonic acid induced dermal inflammation” value is “inhibition of arachidonic acid induced dermal inflammation”.

For `CCNc1ccc(C2C(CNCc3ccccc3)c3ccccc3CN2CCCCC(CN)NC)cc1` (stereo not shown) [TRG 2407-50], the IC50 amounted to 0.35 µM at MCR-1 (setting [2]) and 9.1 µM at MCR-4 (setting [2]).

Consider `COc1ccccc1CCNCC1c2ccccc2CN(CCCCC(CN)NCC(C)c2ccc(CC(C)C)cc2)C1c1ccc(Oc2ccccc2)cc1` (stereo not shown) [TRG 2414-132], for which the IC50 on MCR-1 (setting [3]) stood at 27.4 µM. Besides, the “MC-4 IC50” value at MCR-4 (setting [4]) is on record as “no fit”.

Turning to `CCNc1ccc(C2C(CNCCc3ccccc3)c3ccccc3CN2CCCC(N)CN)cc1` (stereo not shown) [TRG 2411-150], the half-inhibitory concentration (IC50) on MCR-1 (setting [5]) amounted to 0.12 µM; on MCR-4 (setting [6]), 4.54 µM.

For `NCC(N)CCCCN1Cc2ccccc2C(CNCc2ccccc2)C1c1ccc(Cl)cc1Cl` (stereo not shown) [TRG 2414-29], the IC50 on MCR-1 (setting [3]) came to 5.66 µM; at MCR-4 (setting [4]), 4.4 µM.

As to `CCCOc1ccc(C2C(CNC3CCCCCC3)c3ccccc3CN2CCCCC(CN)NCCc2ccccc2)cc1` (stereo not shown) [Cmpd 194], the IC50 came out at 3.86 µM on MCR-1 (setting [7]) and 5.09 µM at MCR-4 (setting [8]).

Take `CCCOc1ccc(C2C(CNC3CCCCCC3)c3ccccc3CN2CCCCC(CN)NCC(C)c2ccc(CC(C)C)cc2)cc1` (stereo not shown) [Cmpd 196]: the IC50 was found to be 13.3 µM at MCR-1 (setting [7]) and 37 µM on MCR-4 (setting [8]).

Consider `CCCCNC(CN)CCCN1Cc2ccccc2C(CNCCc2ccccc2)C1c1ccc(NCC)cc1` (stereo not shown) [TRG 2411-153], for which the IC50 at MCR-1 (setting [5]) turned out to be 0.08 µM; on MCR-4 (setting [6]) it was 0.59 µM.

In the case of `CCCOc1ccc(C2C(CNCCc3ccccc3OC)c3ccccc3CN2CCCCC(CN)NCC(C)c2ccc(CC(C)C)cc2)cc1` (stereo not shown) [TRG 2414-172], the IC50 on MCR-1 (setting [3]) came to 15.7 µM; on MCR-4 (setting [4]) it was 39.6 µM.

Turning to `CNC(CN)CCCN1Cc2ccccc2C(CNC2CCCCC2)C1c1ccc(Cl)cc1Cl` (stereo not shown) [TRG 2408-70], the values for the IC50 on MCR-1 (setting [9]) and on MCR-4 (setting [9]) were 1.46 µM and 2.5 µM, respectively.

Consider `NCC(N)CCCCN1Cc2ccccc2C(CNCc2ccccc2)C1c1cc(C(F)(F)F)cc(C(F)(F)F)c1` (stereo not shown) [TRG 2414-69], for which the IC50 on MCR-1 (setting [3]) stood at 9.45 µM; at MCR-4 (setting [4]), 0.64 µM.

For `CNC(CN)CCCCN1Cc2ccccc2C(CNC(C)C)C1c1ccc(Cl)cc1Cl` (stereo not shown) [TRG 2407-37], the IC50 on MCR-1 (setting [2]) is 0.91 µM; on MCR-4 (setting [2]) it was 0.54 µM.

In the case of `CCOc1ccc(C2C(CNCCc3ccccc3)c3ccccc3CN2CCCC(CN)NCc2ccccc2)cc1` (stereo not shown) [TRG 2412-21], the IC50 on MCR-1 (setting [5]) came to 0.17 µM; at MCR-4 (setting [6]), 0.23 µM.

For the compound `CCNc1ccc(C2C(CNC3CCCCC3)c3ccccc3CN2CCCCC(CN)NCc2ccccc2)cc1` (stereo not shown) [TRG 2411-54], the IC50 at MCR-1 (setting [10]) came out at 0.13 µM; at MCR-4 (setting [11]), 1.79 µM.

`NCC(N)CCCCN1Cc2ccccc2C(CNCc2ccccc2C(F)(F)F)C1c1cccc(Oc2ccccc2)c1` (mixture of isomers) [TRG 2414-81]: the IC50 was found to be 10.8 µM on MCR-1 (setting [3]) and 9.87 µM at MCR-4 (setting [4]).

On to `CCCOc1ccc(C2C(CNCc3ccc(OC)cc3)c3ccccc3CN2CCCCC(N)CN)cc1` (stereo not shown) [TRG 2414-181], for which the results for the IC50 at MCR-1 (setting [3]) and on MCR-4 (setting [4]) were 0.468 µM and 6.83 µM, respectively.

With `CNC(CN)CCCCN1Cc2ccccc2C(CNC2CCCCC2)C1c1ccc(NCCc2ccc(OC)cc2)cc1` (stereo not shown) [TRG 2409-21], the values for the IC50 on MCR-1 (setting [10]) and at MCR-4 (setting [11]) were 2.63 µM and 14.7 µM, respectively.

`CNC(CN)CCCCN1Cc2ccccc2C(CNc2ccccc2)C1c1ccc(Cl)cc1Cl` (mixture of isomers) [TRG 2407-1]: the results for the IC50 on MCR-1 (setting [2]) and at MCR-4 (setting [2]) were 5.57 µM and 10.7 µM, respectively.

Regarding `CC(C)Cc1ccc(C(C)CNC(CN)CCCCN2Cc3ccccc3C(CNCc3ccccc3C(F)(F)F)C2c2ccccc2Br)cc1` (stereo not shown) [Cmpd 204], at MCR-1 (setting [7]), the “MC-1 IC50” value is “no fit”. Also, the “MC-4 IC50” value at MCR-4 (setting [8]) is on record as “no fit”.
